Tested on: anesthetized rats
Test: Cardiovascular effects (blood pressure, heart rate) in anesthetized rats pretreated with heparin and histamine antagonists or NO synthase inhibitor
Format: in vivo, rat
Conditions: for blocking of blood pressure reductions caused by IV infusion of Compound 100: pretreatment at T = -15 minutes, Compound 100 at 8 and 16 mg/kg, anesthetized rat
Description: A purpose of this study was to evaluate the role of histamine or nitric oxide (NO) on the hemodynamic effects of Compound 100 administered by a 10 minute IV infusion in rats by pretreatment with an H1 receptor blocker (diphenhydramine; DPH), an H2 receptor blocker (cimetidine; CIM), or an NO synthase inhibitor (L-NAME). Surgically prepared animals (jugular vein catheter for test article administration and carotid artery catheter for blood pressure/heart rate measurement) were purchased from Charles River Laboratories, Raleigh, N.C. Animals were anesthetized on the day of experimentation with isoflurane (1.8-4%). Blood pressure and heart rate data were collected on a Grass Polygraph recorder. Groups of three or four animals were administered two pretreatments followed by the administration of the vehicle or Compound 100. Dose groups are described in Table 1. Treatment 1 was administered at T=−15 minutes as an intravenous administration of saline, cimetidine or L-Name, a subcutaneous dose of diphenhydramine or a combination of diphenhydramine (s.c.) and cimetidine (i.v.). Saline or heparin were administered at T=−3 minutes by intravenous administration (Treatment 2). Treatment 3 was Compound 100 or sterile water (vehicle) which was administered by a 10 minute intravenous infusion. Blood pressure and heart rate were recorded prior to Treatment 1, 5 and 10 minutes after Treatment 1, 2 minutes following Treatment 2, and at 1, 15, 25, 40, and 70 minutes following Treatment 3. Each recording interval was approximately 1 minute long. [table]

Structure (SMILES)	blood pressure following administration of L-NAME, prior to dosing of test agent (L-NAME 100 mg/kg i.v., before Compound 100)	blocking of blood pressure reductions caused by IV infusion of Compound 100
COC(=O)[C@@H](N)CCCNC(=N)N[N+](=O)[O-] [L-NAME]	increases in blood pressure were evident	ineffective at both Compound 100 dosages
CN(C)CCOC(c1ccccc1)c1ccccc1 [diphenhydramine]	–	effectively blocks blood pressure reductions
CN/C(=N/CCSCc1nc[nH]c1C)NC#N [Cimetidine, cimetidine]	–	only prevented blood pressure reductions at the 8 mg/kg dose

From US20140162955A1, “Antagonizing Heparin With Salicylamide Compounds And Histamine Blocking Agents” (CELLCEUTIX CORPORATION, priority 2012, published 2014)
